In patent publication US6479474B2, “Dietary calcium as a supplement to vitamin D compound treatment of multiple sclerosis” (Wisconsin Alumni Research Foundation, priority 1999, dated 2002):

How the values were obtained:
[1] = Body weight at end of the 50 d experiment; assay type: in vivo; settings: male mice, end of 50 d experiment, mean ± SD
Text: (§1) Animals and Diets. The B10.PL mice were produced in our colony using breeding pairs obtained from Jackson Laboratories (Bar Harbor, Me.). During breeding, the mice were fed Purina diet 5008 Formilab (Richmond, Ind.), containing 100 IU/g of cholecalciferol (vitamin D3). Mice were used for experiments at 6-8 wk of age at which time the females were 18-22 g and the males were 22-26 g. For experiments, all of the mice were fed synthetic diets (Yang, et al., 1993; Smith, et al., 1987) with the modifications described below. For all experiments each mouse was fed 4 g of the experimental diet (completely eaten) and the diets were replaced every 2-3 days for the duration of each experiment. […] Although the experimental diet was devoid of vitamin D, the mice were exposed to normal light and, therefore, were not vitamin D deficient. EAE was induced in all mice one week after the experimental diets were started. For mice with severe symptoms of EAE, food was placed in small dishes on the bottom of the cage. At the end of the experiments, mice were weighed, killed, and bled.

[2] = tested on: experimental autoimmune encephalomyelitis (EAE) in B10.PL mice; test: EAE induction in B10.PL mice fed 1,25-(OH)2D3 and various dietary calcium: EAE incidence and prevention; assay type: in vivo; settings: for prevention of EAE: 20 mg calcium/100 g diet (low); for incidence of EAE: 20 mg calcium/100 g diet, lower doses that do not raise serum calcium; for times more 1,25-(OH)2D3 needed to prevent EAE in males than females: males vs females
Text: as §1
In the first experimental design, male and female mice were fed diets which contained 1 g calcium/100 g diet and EAE was induced. In a second series of experiments groups of 8-12 mice were fed the experimental diet (control treatment) without vitamin D or the experimental diet plus various concentrations of 1,25-(OH)2D3 as indicated. Females were fed 1,25-(OH)2D3 ranging from 0 to 200 ng/d and the males were fed 0 to 800 ng/d. The experimental diet contained one of 3 calcium concentrations; 20 mg (low), 470 mg (medium) or 1 g (high) calcium/100 g diet as indicated. The final experimental design used only male which were fed the control diet or the same diet containing 100 ng 1,25-(OH)2D3/daily. These mice were fed diets, which contained low, medium, or high calcium as indicated. […] All of the procedures described were reviewed and approved by the University of Wisconsin-Madison Research Animal Resources Center Committee Review Board on Sep. 9, 1994 and the protocol number is A-07-3000-A00755-4-08-94.
EAE disease induction. Myelin basic protein (MBP) was isolated from guinea pig spinal cords (Cantorna, et al., 1996). MBP was lyophilized and stored at −20° C. For immunizations, MBP was dissolved in 0.1 mol/L acetic acid at a concentration of 8 g/L (Cantorna, et al., 1996). Ether anesthetized mice were immunized subcutaneously with 0.1 ml of MBP ([…]) emulsified in an equal volume of Complete Freund's Adjuvant (CFA, Difco Laboratories, Detroit, Mich.) containing Mycobacterium tuberculosis H37 Ra. In addition, on the day of immunization and two days later mice were injected i.p. with 200 ng of pertussis toxin (LIST Biological Laboratories, Campbell, Calif.) suspended in sterile saline. […] Male mice were killed on d 21 post-immunization to measure various immune responses. The EAE scoring system was: 0=normal; 1=limp tail; 2=paraparesis with a clumsy gait; 3=hind limb paralysis; 4=hind and fore limb paralysis; 5=moribund.

IFN-γ = settings: in vivo treatments, literature (Cantorna 1998b); cited from earlier work
TGF-β1 mRNA [3] = test: TGF-β1 transcript analysis in LN by quantitative competitive PCR; assay type: in vivo; settings: male mice with EAE, 100 ng daily, regardless of dietary calcium and number of cells in the LN
Experimental: (§2) Transcript analysis by quantitative competitive PCR. Cells for mRNA analysis were dissolved in acid guanidinium thiocyanate, and total RNA was isolated by the phenol chloroform extraction method (Chomczynski and Sacchi, 1987). Total cellular RNA was reverse-transcribed using oligo dT primers according to the manufacturer's protocols (Promega) and quantitated by competitive PCR. Primers and mimic DNA specific for glyceraldehyde-3-phosphate dehydrogenase (G3PDH), IL-4 and TGF-β1 were obtained from Clontech Laboratories, Inc. (Palo Alto, Calif.) (Siebert and Larrick, 1992; Siebert and Larrick, 1993). Competitive cDNA mimics which included the G3PDH, IL-4 and TGF-β1 primer sequences adjoining a neutral DNA segment, were serially diluted and added to test cDNA aliquots (Siebert and Larrick, 1992; Siebert and Larrick, 1993). The authentic product to mimic bp sizes were 983/600 for G3PDH, 306/544 for IL-4, and 525/390 for TGF-β1. The mixture was amplified under predetermined optimal conditions and the products were resolved by 1.5% agarose gel electrophoresis and ethidium bromide stained. […] The mimic DNA dilution that yielded a band with a fluorescence intensity that matched the cytokine band was used to calculate cytokine cDNA copy number. The G3PDH transcript quantitation served as a control for reverse transcription efficiency. […]

TGF-β1 mRNA [4] = settings: in vivo treatments, literature (Cantorna 1998b); cited from earlier work
IL-4 mRNA [5] = settings: in vivo treatments, literature (Cantorna 1998b); cited from earlier work
LN cells = test: Flow cytometry of LN cell populations (Thy-1, CD4, CD8); assay type: in vivo, mice; settings: regardless of dietary calcium or 1,25-(OH)2D3 treatment
Experimental: (§3) Lymphocytes. Axillary, brachial and inguinal lymph nodes (LN) from 6 mice were collected and pooled from control and 1,25-(OH)2D3 treated mice on d 21 post-immunization. Each experiment was repeated 3 times in its entirety. These LNs were chosen because they drained the site of immunization. Collected LN were disrupted manually using a 23 g needle and a pair of forceps. Total cell numbers in the LN were determined by counting the number of lymphocytes from control- and 1,25-(OH)2D3 treated mice and dividing by the number of mice in the group. Flow cytometry of fluorescent-labeled cell populations (Thy-1, class II, CD4 and CD8) were done on LN cells from control- and 1,25-(OH)2D3-treated mice using standard protocols and exactly as described (Smith, et al., 1987). For cytokine PCR analysis, LN cells were saved for total cellular RNA isolation.

[6] = tested on: experimental autoimmune encephalomyelitis (EAE) in B10.PL mice; settings: literature (Cantorna 1996; Lemire and Archer 1991); cited from earlier work
IL-4 mRNA [7] = test: IL-4 transcript analysis in LN by quantitative competitive PCR; assay type: in vivo; settings: male mice with EAE, 100 ng daily
Experimental: as §2

[8] = Serum calcium by atomic absorption spectrometry; assay type: in vivo, mice; settings: high dietary calcium, at EAE-preventing doses (6 ng/d females, 100 ng/d males)
Experimental: Serum calcium and 1,25-(OH)2D3 analysis. After 50 days the mice were killed, blood was collected by heart puncture and serum was collected following clot formation. Serum calcium concentrations were determined using a Perkin Elmer atomic absorption spectrometer exactly as described (Mohamed, et al., 1995). 1,25-(OH)2D3 analysis was done exactly as described (Arbour, et al., 1996).

transplant rejection = settings: literature (Bouillon 1995; Hullett 1998); cited from earlier work
[9] = tested on: lymphocytes in the draining LN; settings: in vivo treatments, literature (Cantorna 1998b); cited from earlier work
experimental arthritis = settings: literature (Cantorna 1998a); cited from earlier work
[10] = tested on: lymphocytes in the draining LN; test: Total cell numbers in the draining lymph nodes of mice with EAE; assay type: in vivo; settings: male mice with EAE, 100 ng daily, d 21 post-immunization
Experimental: as §3

G3PDH mRNA = test: G3PDH transcript analysis in LN by quantitative competitive PCR; assay type: in vivo; settings: LN of male mice with EAE, 100 ng daily
Experimental: as §2

TNF-α = settings: in vivo treatments, literature (Cantorna 1998b); cited from earlier work

## C=C1/C(=C\C=C2/CCC[C@]3(C)[C@@H]([C@H](C)CCCC(C)(C)O)CC[C@@H]23)C[C@@H](O)C[C@@H]1O [1,25-(OH)2D3, 1α,25-dihydroxyvitamin D3]
[1]; dietary calcium 20 mg/100 g, high dose 800 ng/day
  Weight: 13 ± 3 g
[1]; dietary calcium 20 mg/100 g, intermediate dose 40-500 ng/d
  Weight: 27 ± 2 g
[1]; dietary calcium 470 mg/100 g, high dose 400 ng/day
  Weight: 17 ± 3 g
[1]; dietary calcium 470 mg/100 g, intermediate dose 50-200 ng/d
  Weight: 23 ± 2 g
[1]; dietary calcium 1 g/100 g, high dose 100-400 ng/day
  Weight: 15 ± 1 g
[1]; dietary calcium 1 g/100 g, intermediate dose 10-50 ng/d
  Weight: 25 ± 2 g
[2]; calcium removed from the diet
  reduction of the incidence of EAE: 50%
[2]; diet containing high calcium, appropriate doses
  effectiveness in preventing EAE: 100%
[2]; females, at 200 ng/d
  prevention of EAE: never completely prevented
[2]; females
  incidence of EAE: 45%
[2]; females, 470 mg calcium/100 g diet (medium)
  dose at which EAE was completely prevented: 200 ng/day
[2]; females, 1 g calcium/100 g diet (high)
  dose at which EAE was completely prevented: 6 ng/day
[2]; low calcium diets, males and females
  drop in EAE incidence compared to mice not treated: 40-45%
[2]; high calcium intakes
  times more 1,25-(OH)2D3 needed to prevent EAE in males than females: 17 times
[2]; overall
  times more 1,25-(OH)2D3 needed to prevent EAE in males than females: at least 4 times
[2]; males, at 800 ng/d
  prevention of EAE: never completely prevented
[2]; males
  incidence of EAE: 30%
[2]; males, 470 mg calcium/100 g diet (medium)
  dose at which EAE was completely prevented: 400 ng/day
[2]; males, 1 g calcium/100 g diet (high)
  dose at which EAE was completely prevented: 100 ng/day
[2]; treated mice, as the incidence dropped (data not shown)
  overall symptoms of EAE (day of onset, paralysis scores): decreased
IFN-γ
  IFN-γ expression: no effect
TGF-β1 mRNA [3]
  TGF-β1 mRNA expression in LN: high levels of TGF-β1
TGF-β1 mRNA [4]
  expression of TGF-β1: net increase
IL-4 mRNA [5]
  expression of IL-4: net increase
LN cells
  CD4+ cells: 40-44 % of the LN
  CD8+ cells: 18-21 % of the LN
  Thy-1 positive cells: 52-57 % of the LN
[6]
  development of EAE: prevent the development of EAE
IL-4 mRNA [7]; low calcium diets
  IL4 production (mRNA in LN): not different from controls
IL-4 mRNA [7]; medium to high calcium diets
  amount of IL-4 produced (mRNA in LN): increased as the calcium in the diet increased
[8]
  serum calcium: elevated
Transplant rejection
  transplant rejection: markedly inhibit transplant rejection
[9]
  total number of lymphocytes: net loss
Experimental arthritis
  development of experimental arthritis: prevent
[10]; low calcium diets
  total number of cells in the LN: the same as controls
[10]; with addition of calcium to the diet
  total number of cells in the LN: decreased dramatically
G3PDH mRNA
  G3PDH mRNA expression: no effect
TNF-α
  TNF-α expression: no effect
